Assay results taken from patent US8735584B2 (Merck Patent GmbH, priority 2008, dated 2014).

biological target: T1, GST-Aurora A (Homo sapiens, UniProt O14965); assay: Aurora A IC50, Caliper LC3000 mobility shift assay; assay type: biochemical; details: LC3000 method; 15 uM ATP (the KM value); read-out: Aurora Kinase A Activity (IC50)
T1 construct: N-terminal GST fusion with full length Aurora A (1-403 amino acids); purchased Carna Biosciences 05-101
T1 sequence (O14965 1-403): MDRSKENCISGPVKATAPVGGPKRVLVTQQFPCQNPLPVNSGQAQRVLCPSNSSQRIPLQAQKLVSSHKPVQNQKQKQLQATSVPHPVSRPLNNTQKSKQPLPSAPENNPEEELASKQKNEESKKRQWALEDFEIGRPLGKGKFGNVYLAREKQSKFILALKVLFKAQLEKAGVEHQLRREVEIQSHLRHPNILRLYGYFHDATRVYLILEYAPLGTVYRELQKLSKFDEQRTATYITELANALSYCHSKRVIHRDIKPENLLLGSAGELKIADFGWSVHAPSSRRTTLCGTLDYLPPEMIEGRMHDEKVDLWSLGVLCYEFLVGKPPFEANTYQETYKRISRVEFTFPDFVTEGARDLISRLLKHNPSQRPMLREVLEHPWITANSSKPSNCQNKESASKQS
Procedure: The Aurora assays described here are performed on two Caliper Life Sciences systems: the LC3000 and the Desktop Profiler. These provide data on enzyme activity via measurement of the relative amounts of phosphorylated or unphosphorylated fluorescently labelled substrate peptide at the end of an enzymatic reaction. These different states of peptide are resolved by applying a potential difference across the sample. The presence of the charged phosphate group on the product (as opposed to the substrate) causes a different peptide mobility between the two peptides. This is visualized by excitation of the fluorescent label on the substrate and product peptides and represented as peaks within the analysis software.
In order to measure inhibitor activity of Aurora A inhibitors in the Caliper Life Sciences LC3000, a TTP Mosquito liquid handling instrument is used to place 0.25 ul of the appropriate concentration of inhibitor in 100% DMSO (for a dose response curve calculation) into each well of a 384-well plate. To this reaction components are added to a final volume of 25 ul: • 0.067 ng/ul GST-Aurora A (Carna Biosciences 05-101. N-terminal GST fusion with full length Aurora A (1-403 amino acids), accession number NP 940835.1). • 15 uM ATP (Fluke, 02055) • 1 mM DTT (Sigma, D0632) • 1 mM MgCl2 (Sigma, M1028) • 1 uM substrate peptide (sequence FITC-LRRASLG-(CONH2), synthesized by Tufts Peptide Synthesis service. • 100 mM HEPES pH 7.5 (Calbiochem, 391338) • 0.015% Brij-35 (Sigma, B4184)
The reaction is incubated for 90 min at 25 C, and then stopped by the addition of 70 ul of Stop buffer (100 mM HEPES pH 7.5, 0.015% Brij-35, 10 mM EDTA (Sigma, E7889)).
The plate is read on a Caliper LC3000 in an Off-Chip mobility shift assay format, using the following parameters for a 12-sipper chip: screening pressure—1.8 psi, upstream voltage—2700, downstream voltage—1000. These conditions cause unphosphorylated substrate and phosphorylated product peptide to resolve as separate peaks allowing direct measurement of percentage of conversion of substrate to product. The percent conversion can be plotted against concentration of inhibitor to produce a sigmoidal dose response curve, from which an 1050 can be calculated using XLFit for Microsoft Excel.
In the desired wells of a 384-well plate, Aurora A (0.067 ng/ul) was incubated with 15 uM ATP (the KM value), 1 mM DTT, 1 mM MgCl2, and 1 uM peptide substrate (sequence FITC-LRRASLG-(CONH2), FITC=fluorescein isothiocyanate) in 100 mM HEPES pH 7.5 and 0.015% Brij-35 buffer. The reaction was incubated for 90 min at 25 C, and then stopped by the addition of 45 ul of Stop buffer (100 mM HEPES ph 7.5, 0.015% Brij-35, 10 mM EDTA).
The plate was read in a Caliper LC 3000 in an Off-Chip mobility shift assay format, using the following parameters: screening pressure—1.8 psi, upstream voltage—2700, downstream voltage—1000. These conditions cause unphosphorylated substrate peptide to resolve as a peak before that of the phosphorylated peptide product.
In the following table “+” means >100 nM, “++” means 11-100 nM, and “+++” means <11 nM.

`O=c1[nH]c2ncccc2c2cc(NS(=O)(=O)c3ccc(Br)cc3)ccc12` [Example 72, 4-Bromo-N-(6-oxo-5,6-dihydro-benzo[c][1,8]naphthyridin-9-yl)-benzenesulfonamide] and `O=c1[nH]c2ncccc2c2cc(NCc3ccc(F)cc3)ccc12` [Example 43, 9-(4-Fluoro-benzylamino)-5H-benzo[c][1,8]naphthyridin-6-one] cannot be ordered by IC50: > 100 nM for the first, > 100 nM for the second.

`COc1cc2c(=O)[nH]c3nccc(Nc4ccc(NC(=O)c5ccc(F)cc5C(F)(F)F)cc4)c3c2cc1OC` [Compound 416, 4-Fluoro-N-[4-(8,9-dimethoxy-6-oxo-5,6-dihydro-benzo[c][1,8]naphthyridin-1-ylamino)-phenyl]-2-trifluoromethyl-benzamide] and `O=C(Nc1ccc(Nc2ccnc3[nH]c(=O)c4ccccc4c23)cc1)c1ccccc1C(F)(F)F` [Compound 379, N-[4-(6-Oxo-5,6-dihydro-benzo[c][1,8]naphthyridin-1-ylamino)-phenyl]-2-trifluoromethyl-benzamide] cannot be ordered by IC50: < 11 nM for the first, < 11 nM for the second.

`O=C(Nc1ccc(CNc2ccnc3[nH]c(=O)c4ccccc4c23)cc1)c1ccccc1` [Compound 325, N-(4-((6-Oxo-5,6-dihydrobenzo[c][1,8]naphthyridin-1-ylamino)methyl)phenyl)benzamide] and `O=C(Nc1ccc(Oc2ccnc3[nH]c(=O)c4ccccc4c23)cc1)c1ccccc1` [Compound 405, N-[4-(6-Oxo-5,6-dihydro-benzo[c][1,8]naphthyridin-1-yloxy)-phenyl]-benzamide] fall in the same range of IC50: 11 to 100 nM for the first, 11 to 100 nM for the second.

First: NCc1ccc2c(=O)[nH]c3nccc(Nc4ccc(NC(=O)c5ccccc5)cc4)c3c2c1 [Compound 280, N-(4-(9-(Aminomethyl)-6-oxo-5,6-dihydrobenzo[c][1,8]naphthyridin-1-ylamino)phenyl)benzamide]
Second: O=C(Nc1ccc(Nc2ccnc3[nH]c(=O)c4cc(Cl)ccc4c23)cc1)c1ccccc1 [Compound 275, N-(4-(8-Chloro-6-oxo-5,6-dihydrobenzo[c][1,8]naphthyridin-1-ylamino)phenyl)benzamide]
The IC50 of the first is lower: < 11 nM for the first, 11 to 100 nM for the second.

First: COc1cc2c(=O)[nH]c3nccc(Nc4ccccc4F)c3c2cc1OC [Example 216, 1-(2-Fluoro-phenylamino)-8,9-dimethoxy-5H-benzo[c][1,8]naphthyridin-6-one]
Second: O=C(Nc1ccc(Nc2ccnc3[nH]c(=O)c4ccccc4c23)c(F)c1)c1ccccc1 [Compound 321, N-(3-Fluoro-4-(6-oxo-5,6-dihydrobenzo[c][1,8]naphthyridin-1-ylamino)phenyl)benzamide]
The IC50 of the first is higher: 11 to 100 nM for the first, < 11 nM for the second.

Compared with `O=C(Cn1cc(Nc2ccnc3[nH]c(=O)c4ccccc4c23)cn1)Nc1ccc(C(F)(F)F)cc1` [Compound 431], `O=C(Cn1cc(Nc2ccnc3[nH]c(=O)c4ccc(F)cc4c23)cn1)Nc1ccc(F)cc1` [Compound 421] is lower in IC50: > 100 nM for the first, 11 to 100 nM for the second.

First: O=c1[nH]c2ncccc2c2cc(NCc3c(F)cccc3Cl)ccc12 [Compound 471, 9-(2-Chloro-6-fluorobenzylamino)benzo[c][1,8]naphthyridin-6(5H)-one]
Second: O=c1[nH]c2ncccc2c2cc(NCc3ccccc3F)ccc12 [Example 44, 9-(2-Fluoro-benzylamino)-5H-benzo[c][1,8]naphthyridin-6-one]
The IC50 of the first is higher: > 100 nM for the first, 11 to 100 nM for the second.

Compared with `O=C(CN1CCC(Nc2ccnc3[nH]c(=O)c4ccccc4c23)CC1)Nc1ccccc1` [Compound 372, 2-(4-(6-Oxo-5,6-dihydrobenzo[c][1,8]naphthyridin-1-ylamino)piperidin-1-yl)-N-phenylacetamide], `CN(C(=O)CN1CCC(Nc2ccnc3[nH]c(=O)c4ccccc4c23)CC1)c1ccccc1` [Compound 377, N-Methyl-2-(4-(6-oxo-5,6-dihydrobenzo[c][1,8]naphthyridin-1-ylamino)piperidin-1-yl)-N-phenylacetamide] is higher in IC50: 11 to 100 nM for the first, > 100 nM for the second. The first is the more potent here.

First: N#Cc1cccc(CNc2ccc3c(=O)[nH]c4ncccc4c3c2)c1 [Compound 463, 3-((6-Oxo-5,6-dihydrobenzo[c][1,8]naphthyridin-9-ylamino)methyl)benzonitrile]
Second: O=c1[nH]c2ncccc2c2cc(NCc3ccccc3C(F)(F)F)ccc12 [Example 48, 9-(2-Trifluoromethyl-benzylamino)-5H-benzo[c][1,8]naphthyridin-6-one]
The IC50 of the first is higher: > 100 nM for the first, 11 to 100 nM for the second.

Compared with `O=C(Cc1ccccc1)Nc1ccc(Nc2ccnc3[nH]c(=O)c4ccccc4c23)cc1` [Compound 350, N-(4-(6-Oxo-5,6-dihydrobenzo[c][1,8]naphthyridin-1-ylamino)phenyl)-2-phenylacetamide], `O=C(Nc1ccc(Nc2ccnc3[nH]c(=O)c4ccccc4c23)cc1)c1cccc(F)c1` [Compound 381, 3-Fluoro-N-[4-(6-oxo-5,6-dihydro-benzo[c][1,8]naphthyridin-1-ylamino)-phenyl]-benzamide] is lower in IC50: 11 to 100 nM for the first, < 11 nM for the second. The second is the more potent here.

`Cc1cc(Nc2ccnc3[nH]c(=O)c4ccccc4c23)n(CC(=O)Nc2ccccc2)n1` [Compound 308, 2-(3-Methyl-5-(6-oxo-5,6-dihydrobenzo[c][1,8]naphthyridin-1-ylamino)-1H-pyrazol-1-yl)-N-phenylacetamide] and `O=C(Nc1ccccc1)C1(CNc2ccnc3[nH]c(=O)c4ccccc4c23)CC1` [Compound 363, 1-((6-Oxo-5,6-dihydrobenzo[c][1,8]naphthyridin-1-ylamino)methyl)-N-phenylcyclopropanecarboxamide] cannot be ordered by IC50: > 100 nM for the first, > 100 nM for the second.

`O=c1[nH]c2ncccc2c2cc(NCc3cc(C(F)(F)F)ccc3C(F)(F)F)ccc12` [Compound 468, 9-(2,5-Bis(trifluoromethyl)benzylamino)benzo[c][1,8]naphthyridin-6(5H)-one] and `O=C1CCCN1CCCNc1ccc2c(=O)[nH]c3ncccc3c2c1` [Compound 479, 9-(3-(2-Oxopyrrolidin-1-yl)propylamino)benzo[c][1,8]naphthyridin-6(5H)-one] cannot be ordered by IC50: > 100 nM for the first, > 100 nM for the second.

`O=C(Nc1ccc(Nc2ccnc3[nH]c(=O)c4c(C(=O)NCCO)cccc4c23)cc1)c1ccccc1` [Compound 438, 1-[4-Benzoylamino-phenylamino)-6-oxo-5,6-dihydro-benzo[c][1,8]naphthyridin-7-carboxylic acid 2-hydroxy ethyl amide] and `O=C(Nc1ccc(Nc2ccnc3[nH]c(=O)c4ccccc4c23)cc1)c1cc(F)cc(F)c1` [Compound 385, 3,5-Difluoro-N-[4-(6-oxo-5,6-dihydro-benzo[c][1,8]naphthyridin-1-ylamino)-phenyl]-benzamide] cannot be ordered by IC50: < 11 nM for the first, < 11 nM for the second.

Compared with `O=C(NC1CCC(Nc2ccnc3[nH]c(=O)c4ccccc4c23)CC1)c1ccc(F)c(F)c1` (centres unmarked) [Compound 402, 3,4-Difluoro-N-[4-(6-oxo-5,6-dihydro-benzo[c][1,8]naphthyridin-1-ylamino)-cyclohexy]-benzamide], `Cn1ccnc1Sc1ccc(Nc2ccnc3[nH]c(=O)c4ccccc4c23)cc1Cl` [Example 156, 1-[3-Chloro-4-(1-methyl-1H-imidazol-2-ylsulfanyl)-phenylamino]-5H-benzo[c][1,8]naphthyridin-6-one] is higher in IC50: 11 to 100 nM for the first, > 100 nM for the second.

With `O=c1[nH]c2nccc(Nc3ccc(OCc4cccc(F)c4)cc3)c2c2ccccc12` [Compound 330, 1-(4-(3-Fluorobenzyloxy)phenylamino)benzo[c][1,8]naphthyridin-6(5H)-one] the IC50 was 11 to 100 nM.
